Results on six compounds are retold here after patent US20230140290A1, “SALICYLAMIDE DERIVATIVES AND RELATED METHODS OF MAKING” (THE BOARD OF REGENTS OF THE UNIVERSITY OF TEXAS SY, priority 2020, published 2023).

Read-outs that look alike come from different tables or passages of the source.

In one series the test system is A549 cells. Put plainly: Cytotoxicity assay (AlamarBlue). The conditions noted are these: read-out: CC50 (μM), cytotoxic concentration 50%; A549 cell line, 48 h. How it is done:
(§1) Cytotoxicity Assay. The cytotoxicity of the compounds was analyzed by commercial kit AlamarBlue® (Invitrogen, Ref. DAL1025). A549 cells at a density of 5×10^3 cells per well in 96-well plates were seeded. […] Cells were then incubated at 37° C. for 48 h following the kit protocol. The cytotoxic concentration 50 (CC50) value was obtained using the statistical package GraphPad Prism. This assay was performed in duplicate.
In general terms: Resazurin is reduced to fluorescent resorufin, in cell work by metabolically active cells.

The next series relates to HAdV5-GFP. Briefly: Time of addition assay. The format is cell-based, HAdV-5. The conditions noted are these: for inhibition at 0.78 µM: FIG. 10. How it is done: Time of Addition Curve Study. […] Parallel samples of HAdV-5 were incubated with or without the selected derivatives on ice for 1 h. […] The derivatives were added at the indicated time points before or during this incubation. After a total of 2 h at 37° C., cells were incubated for an additional 48 h at 37° C. and 5% CO2 before being analyzed for GFP expression using the Typhoon 9410 imager (GE Healthcare Life Sciences) as above.
Time of Addition Assay. […] Parallel samples of HAdV-5 were incubated with or without the selected derivatives on ice for 1 h. […] The derivatives were added at the indicated time points before or during this incubation. After a total of 2 h at 37° C., cells were incubated for an additional 48 h at 37° C. and 5% CO2 before being analyzed for GFP expression using the Typhoon 9410 imager (GE Healthcare Life Sciences) as above.
Time of Addition Assay. […] Parallel samples of HAdV-5 were incubated with or without the selected compounds on ice for 1 h. […] Compounds 153 and 161 were added at the indicated time points before or during this incubation. After a total of 2 h at 37° C., cells were incubated for an additional 48 h at 37° C. and 5% CO2 before being analyzed for GFP expression using the Typhoon 9410 imager (GE Healthcare Life Sciences) as above.

Another series concerns HCMV. Briefly: HCMV DNA quantification by real-time PCR. The series is classed as cell-based, human cytomegalovirus. The conditions noted are these: HFF cells, 72 h, 10-fold plaque IC50 (niclosamide 5 μM). As for the experimental part:
HCMV DNA Quantification by Real-Time PCR. […] Then, cells were incubated for 72 h at 37° C. and 5% CO2 and HCMV DNA was purified from the cell lysate using the QIAamp DNA Mini Kit (Qiagen, Valencia, Calif.) following the manufacturer's instructions. Real-time PCR primers, mixtures and protocols were the same as previously reported (Sanchez-Cespedes et al., J. Med. Chem. 2016, 59, 5432-5448).
(In general: In qPCR the cycle at which signal appears reflects the starting amount.)

Series [1] can be described thus: Maximum tolerated dose (MTD). Particulars: female, Syrian, hamster, in vivo, ip. As for the experimental part:
Maximum tolerated dose (MTD). […] Before dosing, compounds were diluted in 10% DMSO, 10% Cremophor EL and 80% sodium chloride physiological solution. […] At day 14 animals were sacrificed with a lethal dose of thiopental. All inoculations were done via intraperitoneal.

In the next series the test system is HAdV. Briefly: Combination study (Chou-Talalay, CalcuSyn) in plaque assay. The format is cell-based. The source says:
Synergistic Activity of Selected Derivatives. […] To assess this hypothesis, we conducted a combination study based on the Chou-Talalay method for drug combination using the CalcuSyn software (Chou, and Talalay, Adv. Enzyme Regul. 1984, 22, 27-55; Matthews et al., PLoS One. 2017, 12, e0173303) using those compounds with lower IC50 in the plaque assay and higher SI, compound 87 from this work and compounds 17 (JMX0312), 58 (JMX0281) from our first library of derivatives. The constant ratio for each combination was selected based on the IC50 values for each drug.
Synergistic Activity of Selected Compounds. […] To evaluate, a combination study was conducted based on the Chou-Talalay method for drug combination using the CalcuSyn software. The constant ration for each combination was selected based on the IC50 values for each drug.

Series [2] is described as follows: Cytotoxicity assay (AlamarBlue). Particulars: human, A549 cells. As for the experimental part: as §1
For the next series, the system named is HAdV5. Put plainly: HAdV-mediated endosome disruption (α-sarcin co-delivery assay). The format is cell-based, HAdV-5. Particulars: FIG. 11; virus below 12 ng; similar to ts1 mutant.
The next series relates to HAdV-5. Put plainly: Thermostability assay (HAdV capsid uncoating). The series is classed as cell-based. The conditions noted are these: FIG. 12; 50 μM, 24 h post-infection. The source says: The studies described above delineate the step of infection that is targeted by 161; however, the precise molecular mechanism involved in its antiviral activity remained to be established. One alternative mode of action was that 161 could block HAdV-mediated lysis of the endosome by stabilizing the virus capsid, thereby preventing uncoating. Indeed, human defensins and neutralizing antibodies have been previously shown to act through this mechanism (Smith et al., Cell Host Microbe, 2008, 3, 11-19). To determine whether 161 impacts HAdV uncoating, we used a thermostability assay that mimics virus disassembly in the endosome, which was previously described by Wiethoff et al., (Wiethoff et al., J. Virol. 2005, 79, 1992-2000), with a few modifications. In this assay, temperatures above 48° C. promote selective removal of the virus vertex region. HAdV-5 was incubated with or without 50 μM concentrations of 161 at temperatures from 37° C. to 52° C. and then added to cells to evaluate the viability of the viruses. […] Upon heating HAdV-5 to 48° C. or above, in those non-treated with compound 161, there was no GFP expression 24 h post-infection.

The mark [3] stands for this setting: combination 17 & 87 (1:1.5), read-out: IC50 combination.
Setting [4] is: combination 87 & 58 (1:1.7), read-out: IC50 combination.
Setting [5] is: derivative alone, read-out: IC50 Single.
The mark [6] stands for this setting: 0 h, FIG. 2, read-out: inhibition of HAdV infection after addition at the moment of the infection (0 min).
[7] abbreviates: combination 17 & 58 (1:2.5), read-out: IC50 combination.

As to `O=C(Nc1ccc([N+](=O)[O-])cc1F)c1cc(Cl)ccc1O` [Compound 11, 5-Chloro-N-(2-fluoro-4-nitrophenyl)-2-hydroxybenzamide], the CC50 in the series with A549 cells was 10.9 µM. In addition, the “loss of inhibition when added between 20 and 40 p.i.” value with HAdV5-GFP (FIG. 2, 5 μM) is given as 34%.
One may read the MTD as the largest dose that counted as tolerated. The IC50 is the concentration needed to halve the response being measured. With `CC1(Nc2ccc(NC(=O)c3cc(Cl)ccc3O)c(Cl)c2)CCCC1` [Compound 87, 5-Chloro-N-(2-chloro-4-((1-methylcyclopentyl)amino)phenyl)-2-hydroxybenzamide], the CC50 in the series with A549 cells worked out at 157 µM. Besides, the “decrease of total HCMV DNA compared to the DMSO control” value with HCMV was “no significant inhibition”. Moreover, the MTD at 14 days in series [1] turned out to be 150 mg/kg. The figures for the half-maximal inhibitory concentration (IC50) in the series with HAdV (setting [3]), with HAdV (setting [4]) and with HAdV (setting [5]) were 140 nM, 300 ± 20 nM and 270 ± 160 nM, respectively.
For `O=C(N[C@H](Cc1ccccc1)C(=O)Nc1ccc([N+](=O)[O-])cc1Cl)c1cc(Cl)ccc1O` [Compound 60, (R)-5-Chloro-N-(1-((2-chloro-4-nitrophenyl)amino)-1-oxo-3-phenylpropan-2-yl)-2-hydroxybenzamide], the CC50 with A549 cells was 77.9 µM. Further, in the series on HAdV5-GFP (20 min, read-out: inhibition of HAdV infection when added after 20 min p.i., FIG. 2), the inhibition at 10 µM is below 50%.
`O=C(Nc1cc(F)cc(C(F)(F)F)c1)c1cc(Cl)ccc1O` [Compound 17, 5-Chloro-N-(3-fluoro-5-(trifluoromethyl)phenyl)-2-hydroxybenzamide] displayed a CC50 at 48 h in series [2] of 120000 ± 33600 nM. In addition, in the series on HAdV5-GFP (setting [6]), the inhibition at 10 µM was below 50%. The compound also displayed a maximum tolerated dose (MTD) at 14 days in series [1] of 12.5 mg/kg. Further, the 50% inhibitory concentration (IC50) is 100 ± 10 nM in the series on HAdV (setting [7]), 90 nM in the series with HAdV (setting [3]) and 180 ± 10 nM in the series on HAdV (setting [5]).
Take `CC(C)[C@H](NC(=O)c1cc(Cl)ccc1O)C(=O)Nc1ccc([N+](=O)[O-])cc1Cl` [Compound 58, (S)-5-Chloro-N-(1-((2-chloro-4-nitrophenyl)amino)-3-methyl-1-oxobutan-2-yl)-2-hydroxybenzamide]: in series [2], the CC50 at 48 h worked out at 200000 nM. Also, the inhibition at 10 µM with HAdV5-GFP (setting [6]) was below 50%. Besides, the MTD at 14 days in series [1] is 50 mg/kg. Besides, the values for the half-inhibitory concentration (IC50) in the series on HAdV (setting [7]), with HAdV (setting [4]) and in the series with HAdV (setting [5]) were 250 ± 20 nM, 500 ± 40 nM and 450 ± 60 nM, respectively.
Regarding `O=C(NCC1CCCCC1)c1cc(Cl)ccc1O` [Compound 161, 5-Chloro-N-(cyclohexylmethyl)-2-hydroxybenzamide], the inhibition at 0.78 µM with HAdV5-GFP (0 h, read-out: inhibitory activity at 0 min post-infection) is 95.3%. Moreover, the inhibition at 0.78 µM with HAdV5-GFP (20 min, read-out: inhibitory activity at 20 min p.i.) is 30.7%. Besides, the HAdV-mediated endosome lysis result with HAdV5 is “prevented HAdV-mediated endosome lysis”. In the series on HAdV-5, the “GFP expression of viruses heated to 48° C.” value was “significant levels of GFP expression” and the “GFP expression of viruses heated to 52° C.” value is “some residual expression”.
